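48-hour exposure; five concentrations; linearly interpolated endpoints. At the GI50, growth is halved. TGI: concentration producing complete growth inhibition.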
Key:
Assay in all cases: inhibition of tumour cell growth, NCI panel, 48 h
[1] = test system: HS 578T breast
[2] = test system: CCRF-CEM leukemia
[3] = test system: SW-620 colon
[4] = test system: SN12C renal
[5] = test system: SK-MEL-2 melanoma
[6] = test system: OVCAR-3 ovarian
[7] = test system: NCI-H460 lung
[8] = test system: MCF7 breast
[9] = test system: HCC-2998 colon
[10] = test system: NCI-H23 lung

SMILES	TGI [1]	TGI [2]	TGI [3]	TGI [4]	TGI [5]	TGI [6]	TGI [7]	TGI [8]	TGI [9]	TGI [10]	GI50 [1]	GI50 [2]	GI50 [3]	GI50 [4]	GI50 [5]	GI50 [6]	GI50 [7]	GI50 [8]	GI50 [9]	GI50 [10]
C/C=C1/CN2[C@@H](C3=C[C@@H]4[C@@H]5N(C3=O)c3ccccc3[C@@]53CCN5C/C(=C/C)[C@@H]4C[C@H]53)C[C@@]34c5ccccc5N5C(=O)CC=C([C@H]1C[C@H]23)[C@H]54	17.3 µM	2.94 µM	10.4 µM	9.95 µM	11.6 µM	15.8 µM	15.4 µM	10.7 µM	8.75 µM	14.3 µM										
COC(=O)c1ccc(CCC2=CC(=O)C(Br)=CC2=O)cc1	45 µM	0.887 µM	27.1 µM	32.5 µM	31.9 µM	31.4 µM	34.5 µM	34.9 µM	29.1 µM	28.4 µM										
CCCN=C1Nc2ccccc2[C@@H]2N(C)c3ccccc3C(C)C[C@]12C (some centres not stated)	41.9 µM	62.9 µM	36 µM	> 100 µM	28.1 µM	54.1 µM	55.4 µM	49.3 µM	26.3 µM	37.3 µM										
CC(C)=CCC/C(=C\CC/C(=C\CCc1ccoc1)C(=O)O)C(=O)O	> 100 µM	> 100 µM	> 100 µM	> 100 µM	> 100 µM	> 100 µM		> 100 µM	> 100 µM	> 100 µM										
C=C(C)[C@@H]1CC[C@]2(CO)CC[C@]3(C)[C@H](CC[C@@H]4[C@@]5(C)CC[C@H](O)C(C)(C)[C@@H]5CC[C@]43C)[C@@H]12		> 100 µM	43.5 µM	69.6 µM		66.4 µM	> 100 µM	45.5 µM		> 100 µM										
CC(C)(C)OC(=O)NC1CCCC1C(O)(C1=CCCC1)C1=CCCC1 (configuration not stated)	> 100 µM	> 100 µM	> 100 µM	> 100 µM	> 100 µM	> 100 µM	> 100 µM		> 100 µM	> 100 µM										
Cc1ccc2ccc(=O)oc2c1	> 100 µM	> 100 µM	> 100 µM	> 100 µM	> 100 µM	> 100 µM	> 100 µM	> 100 µM		> 100 µM										
Cc1ccc(S(=O)(=O)NC(=O)NC(Cc2ccccc2)C(=O)O)cc1 (configuration not stated)	> 100 µM	> 100 µM	> 100 µM	> 100 µM	> 100 µM		> 100 µM	> 100 µM		> 100 µM										
Cc1c(C#N)c2nnn(-c3ccc([N+](=O)[O-])cc3)c(=O)n2c1-c1ccccc1	> 100 µM	> 100 µM	51 µM	24.9 µM	22 µM	10 µM	26.5 µM	19.6 µM	20 µM	18.5 µM										
Cc1ccc(S(=O)(=O)N(CC(O)c2ccccc2)c2ccccc2F)cc1 (configuration not stated)	41.1 µM	64.5 µM	39.9 µM	34.3 µM	32.1 µM	25 µM	32.5 µM	28 µM	53.2 µM	36.9 µM										
CCOC(O)C(F)(F)F (configuration not stated)	> 100 µM	> 100 µM	> 100 µM	> 100 µM		> 100 µM	> 100 µM	> 100 µM	> 100 µM	> 100 µM										
COc1ccc2c(c1)c(=O)c1c(NCCCN(C)CCCNc3ccc4c(=O)n(CCN(C)C)c(=O)n5c6ccc(OC)cc6c(=O)c3c45)ccc3c(=O)n(CCN(C)C)c(=O)n2c31	1.73 µM	0.049 µM	0.752 µM	1.43 µM	2.44 µM	2.56 µM	0.209 µM	1.12 µM	0.544 µM	0.704 µM										
CC(=O)Nc1ccc(N2C(=O)CS(=O)(=O)C2c2cccc(Oc3ccccc3)c2)cc1 (configuration not stated)	79.9 µM	> 100 µM	80.5 µM	29.6 µM	37.3 µM	38.2 µM	34.7 µM	35.9 µM		43.5 µM										
O=C(Nc1ccc(-n2cc(-c3ccncc3)c(-c3ccc(O)c(Cl)c3)n2)cc1)c1cc(Cl)cc(Cl)c1	6.52 µM	> 32.5 µM	> 32.5 µM	> 32.5 µM	2.94 µM	> 32.5 µM	> 32.5 µM	> 32.5 µM	> 32.5 µM	> 32.5 µM	0.939 µM	1.45 µM	2.21 µM	2.44 µM	0.899 µM	1.91 µM	2 µM	3.33 µM	11.8 µM	12.1 µM
COc1cc(CCNC2=CC(=O)c3cccnc3C2=O)ccc1O	3.56 µM	25.9 µM	2.94 µM	2.43 µM	3.46 µM	5.51 µM	2.65 µM	1.3 µM	3.58 µM	4.65 µM										
[N-]=[N+]=C(C(=O)OCC#CCOC(=O)C(=[N+]=[N-])S(=O)(=O)c1ccccc1)S(=O)(=O)c1ccccc1	> 10 µM	> 10 µM	> 10 µM	> 10 µM	> 10 µM	> 10 µM	> 10 µM	> 10 µM	> 10 µM	> 10 µM										
N#CN=C1c2ccccc2C(=NC#N)c2cc(CO)ccc21	> 100 µM		> 100 µM	> 100 µM	> 100 µM	> 100 µM	> 100 µM	83.1 µM		> 100 µM										
COc1ccc(OC)c(C(=O)/C=C/c2cc(O)c(O)cc2F)c1	> 100 µM	15.7 µM	> 66.5 µM	5.8 µM	9.51 µM	1.59 µM	9.27 µM	14.3 µM	1.98 µM	10.4 µM										
NC(CCl)=NC1CN2CCC1CC2 (configuration not stated)	> 100 µM	> 100 µM	> 100 µM	> 100 µM	> 100 µM	> 100 µM	> 100 µM	> 100 µM		> 100 µM										
CN(C)Cc1cc(C(C)(C)C)cc(CNC2CCCCC2)c1O	> 100 µM	43.7 µM	> 100 µM	> 100 µM	> 100 µM	> 100 µM	44.6 µM	> 100 µM	23.7 µM	> 100 µM										
